Data published in patent publication US8945540B2, “Compositions for enhancing the antibacterial activity of myeloperoxidase and methods of use thereof” (Exoxemis, Inc., priority 2008, dated 2015).
Like-named read-outs stand apart in the source and are kept apart here. Where a SMILES comes first, the peptide text is derived from it.

What was measured:
Staphylococcus aureus [1] = assay: Microbicidal activity of the myeloperoxidase system (p-MPO, glucose oxidase, glucose) with amino acids in the presence of blood, CFU plate counts; synergy determination from these CFU; assay type: cell-based; conditions: for Average Viability CFU/ml 50 min / Log Reduction 50 min: single amino acid 2.5 mM, MPO 4.7 U/ml, GO 4.2 U/ml, in the presence of blood
How it was run: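 Microbicidal activity of the MPO–glucose oxidase–glucose system against S. aureus with amino acids was assessed in 3% whole blood. Reactions of 1 mL were run at room temperature or 37° C and stopped with catalase. Surviving CFU were counted on trypticase soy agar. For each pair, Actual CFU was divided by Predicted CFU and multiplied by 100. This value was compared with variability-based thresholds to classify synergism, antagonism or additivity.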

Staphylococcus aureus [2] = assay: Control: microbicidal activity of the amino acid or analogue alone (no glucose, MPO, glucose oxidase) in the presence of blood; assay type: cell-based; conditions: for log reduction at 5000 µM: Staphylococcus aureus, 1 h, read-out: Log Reduction 60 min
Description: As a control to determine the microbicidal activity of the amino acids alone, the foregoing procedure was followed without replication, except in the absence of glucose, MPO, and glucose oxidase.

[3] = MPO 100 μg/mL, AA 20 mM, 30 min
[4] = MPO 100 μg/mL, AA 20 mM, 60 min
[5] = Table 2, amino acid 5 mM (none: 0 mM), MPO 38 U/ml, GO 33.3 U/ml, blood
[6] = amino acid alone 5 mM, MPO 0, GO 0, no glucose, blood, without replication
[7] = Table 7, amino acid analogue 5 mM, MPO 38 U/ml, GO 33.3 U/ml, blood
[8] = amino acid analogue alone 5 mM, MPO 0, GO 0, no glucose, blood
[9] = Table 4, amino acid 5 mM (none: 0 mM), MPO 38 U/ml, GO 33.3 U/ml, blood
[10] = Table 5, amino acid 5 mM (none: 0 mM), MPO 38 U/ml, GO 33.3 U/ml, blood

Row | SMILES | Log 10 (CFU + 1) Survivors (Staphylococcus aureus [1]; MPO 25 μg/mL, AA 5 mM, 30 min) | Log 10 (CFU + 1) Survivors (Staphylococcus aureus [1]; MPO 25 μg/mL, AA 5 mM, 60 min) | Log 10 (CFU + 1) Survivors (Staphylococcus aureus [1]; MPO 25 μg/mL, AA […], 30 min) | Log 10 (CFU + 1) Survivors (Staphylococcus aureus [1]; MPO 25 μg/mL, AA […], 60 min) | Log 10 (CFU + 1) Survivors (Staphylococcus aureus [1]; MPO 100 μg/mL, AA 5 mM, 30 min) | Log 10 (CFU + 1) Survivors (Staphylococcus aureus [1]; MPO 100 μg/mL, AA 5 mM, 60 min) | Log 10 (CFU + 1) Survivors (Staphylococcus aureus [1]; [3]) | Log 10 (CFU + 1) Survivors (Staphylococcus aureus [1]; [4]) | Average Viability CFU/ml 60 min (Staphylococcus aureus [1]; [5]) [CFU/ml] | Log 10 (CFU + 1) Survivors 60 min (Staphylococcus aureus [1]; [5]) | Log Reduction 60 min (Staphylococcus aureus [1]; [5]) | Average Viability CFU/ml 50 min (Staphylococcus aureus [1]; Table 10) [CFU/ml] | Log Reduction 50 min (Staphylococcus aureus [1]; Table 10) | log reduction at 5000 µM (Staphylococcus aureus [2]; [6]) | Average Viability CFU/ml 60 min (Staphylococcus aureus [2]; [6]) [CFU/ml] | other results
1 | N[C@@H](CO)C(=O)O [L-Serine] | 5.0 | 0.0 | 6.8 | 1.8 | 5.0 | 0.0 | 5.8 | 0.0 | 0 | 0.0 | 7.4 | 1175000 | 1.3 | 0 | 24100000 | Average Viability CFU/ml 50 min (Staphylococcus aureus [1]; Table 13): 835000 CFU/ml; Log Reduction 50 min (Staphylococcus aureus [1]; Table 13): 1.5; Average Viability CFU/ml 50 min (Staphylococcus aureus [1]; Table 14): 940000 CFU/ml; Log Reduction 50 min (Staphylococcus aureus [1]; Table 14): 1.5
2 | COC(=O)[C@@H](N)CCCCN.Cl.Cl [L-Lysine methyl ester dihydrochloride] |  |  |  |  |  |  |  |  |  |  |  |  |  |  |  | Average Viability CFU/ml 60 min (Staphylococcus aureus [1]; [7]): 0 CFU/ml; Log Reduction 60 min (Staphylococcus aureus [1]; [7]): 7.4; log reduction at 5000 µM (Staphylococcus aureus [2]): 0; Average Viability CFU/ml 60 min (Staphylococcus aureus [2]; [8]): 21500000 CFU/ml
3 | C[C@H](N)C(=O)N[C@@H](C)C(=O)O [L-Ala-L-ala] (H-Ala-Ala-OH) |  |  |  |  |  |  |  |  |  |  |  |  |  |  | 26100000 | Average Viability CFU/ml 60 min (Staphylococcus aureus [1]; [9]): 238500 CFU/ml; Log Reduction 60 min (Staphylococcus aureus [1]; [9]): 2.0; Log Reduction 60 min (Staphylococcus aureus [2]; [6]): 0.0
4 | NC(=O)CC[C@@H](N)C(=O)O [D-Glutamine] | 7.3 | 7.0 | 7.2 | 7.0 | 5.0 | 0.0 | 6.8 | 4.0 |  |  |  | 14750000 | 0.2 | 0.1 | 20500000 | Average Viability CFU/ml 60 min (Staphylococcus aureus [1]; [10]): 18 CFU/ml; Log Reduction 60 min (Staphylococcus aureus [1]; [10]): 6.1; Average Viability CFU/ml 50 min (Staphylococcus aureus [1]; Table 11): 15500000 CFU/ml; Log Reduction 50 min (Staphylococcus aureus [1]; Table 11): 0.2; Average Viability CFU/ml 50 min (Staphylococcus aureus [1]; Table 14): 15050000 CFU/ml; Log Reduction 50 min (Staphylococcus aureus [1]; Table 14): 0.3
5 | N[C@@H](Cc1c[nH]cn1)C(=O)O [L-Histidine] | 7.3 | 7.3 | 7.3 | 7.3 | 6.8 | 4.7 | 7.3 | 7.3 | 48000 | 4.7 | 2.7 | 7000000 | 0.5 | 0 | 22700000 | Average Viability CFU/ml 50 min (Staphylococcus aureus [1]; Table 11): 7000000 CFU/ml; Log Reduction 50 min (Staphylococcus aureus [1]; Table 11): 0.6; Average Viability CFU/ml 50 min (Staphylococcus aureus [1]; Table 13): 4750000 CFU/ml; Log Reduction 50 min (Staphylococcus aureus [1]; Table 13): 0.7
6 | N=C(N)NCCC[C@H](N)C(=O)O [L-Arginine] |  |  |  |  |  |  |  |  | 5450000 | 6.7 | 0.6 |  |  |  | 23600000 | enhancement of MPO microbicidal activity (in words) (Staphylococcus aureus [1]; amino acid 5 mM, MPO 38 U/ml, GO 33.3 U/ml, blood): essentially inactive; log reduction at 5000 µM (Staphylococcus aureus [2]): 0
7 | COC(=O)[C@@H](N)Cc1ccc(O)cc1.Cl [L-Tyrosine methyl ester hydrochloride] |  |  |  |  |  |  |  |  |  |  |  |  |  |  |  | Average Viability CFU/ml 60 min (Staphylococcus aureus [1]; [7]): 87000 CFU/ml; Log Reduction 60 min (Staphylococcus aureus [1]; [7]): 2.4; log reduction at 5000 µM (Staphylococcus aureus [2]; [8]): 0; Average Viability CFU/ml 60 min (Staphylococcus aureus [2]; [8]): 20900000 CFU/ml
